The source of these data is ChEMBL document CHEMBL6109086, “Discovery and biological evaluation of hederagenin derivatives as non-substrate inhibitors of P-glycoprotein-mediated multidrug resistance” (Eur J Med Chem, 2025).

Series [1] in a line: Reversal of multi-drug resistance in human KBV cells assessed as paclitaxel induced cytotoxicity by measuring cell survival at 10 uM measured after 72 hrs by MTT assay relative to control. The format is functional.
Series [2] is described as follows: Aqueous solubility of the compound in deionized water measured after 24 hrs by UV-vis spectrophotometric analysis. The format is physicochemical. To be noted: buffer.
Series [3] has as its system KBV. Description: Anti-tumor activity against human KBV cells xenografted in male BALB/c nude mouse assessed as reduction in tumor volume at 30 mg/kg administered every days for 18 days. Type of series: functional, organism-based. To be noted: time 18.0 day. (In general: Xenograft models place foreign cells or tissue in a host animal.)
The nature of series [4]: Cytotoxicity against human KBV cells incubated for 72 hrs by MTT assay. The format is functional, cell-based. For orientation: Formazan colour is commonly taken as a measure of viable cells.
Series [5] can be described thus: Cytotoxicity against human KBV cells assessed as paclitaxel induced cytotoxicity by measuring cell survival at 10 uM measured after 72 hrs by MTT assay relative to control. The format is functional.
In series [6] the test system is KBV. Description: Induction of apoptosis in human KBV cells in presence of paclitaxel incubated for 24 hrs by PI staining based flow cytometry analysis. Type of series: functional, cell-based. To be noted: dose 2.5-10 µM. In general terms: A flow cytometer gives signals particle by particle.
A short description of series [7]: Sensitization of paclitaxel-induced cytotoxicity against human KBV cells assessed as fold change in paclitaxel IC50 at 5 uM incubated for 72 hrs by MTT assay relative to paclitaxel alone. Type of series: functional.
The nature of series [8]: Sensitization of vincristine -induced cytotoxicity against human KBV cells assessed as fold change in vincristine IC50 at 10 uM incubated for 72 hrs by MTT assay relative to vincristine alone. The format is functional.
The next series deals with KBv200. As to the kind of experiment: Effect on p-glycoprotein expression level in human KBv200 cells at 2.5 to 10 uM measured after 4 hrs by Western blot analysis. Type of series: functional, cell-based. The following applies: dose 2.5-10 µM.
The test system of series [9] is KBV. As to the kind of experiment: Induction of cell cycle arrest in human KBV cells assessed as accumulation of cells at G2/M phase in presence of paclitaxel incubated for 24 hrs by PI staining based flow cytometry analysis. Type of series: functional. The following applies: dose 2.5-10 µM.
In series [10] the test system is KBV. Description: Induction of Rh123 accumulation in human KBV cells at 10 uM incubated for 150 mins by flow cytometry analysis. The format is functional, cell-based.
For series [11], the system named is KBV. As to the kind of experiment: Induction of cell cycle arrest in human KBV cells assessed as accumulation of cells at G2/M phase at 10 uM incubated for 24 hrs by PI staining based flow cytometry analysis. The format is functional.
Series [12] has as its target ATP-dependent translocase ABCB1 (Homo sapiens, UniProt P08183). As to the kind of experiment: Induction of thermal stabilization of p-glycoprotein in human KBV cells at 50 uM pre-treated with cells for 24 hrs and measured after 2 hrs by CESTA. The format is cell-based. To be noted: 26 h.
Series [13] deals with KBV. As to the kind of experiment: Induction of cell cycle arrest in human KBV cells assessed as accumulation of cells at G2/M phase at 10 uM in presence of paclitaxel incubated for 24 hrs by PI staining based flow cytometry analysis. The format is functional.
Series [14] can be described thus: Sensitization of vincristine -induced cytotoxicity against human KBV cells assessed as fold change in vincristine IC50 at 2.5 uM incubated for 72 hrs by MTT assay relative to vincristine alone. Type of series: functional.
Series [15] can be described thus: Sensitization of paclitaxel-induced cytotoxicity against human KBV cells assessed as fold change in paclitaxel IC50 at 2.5 uM incubated for 72 hrs by MTT assay relative to paclitaxel alone. Type of series: functional.
Series [16] is described as follows: Sensitization of paclitaxel-induced cytotoxicity against human KBV cells assessed as fold change in paclitaxel IC50 at 10 uM incubated for 72 hrs by MTT assay relative to paclitaxel alone. The format is functional.
The subject of series [17] is KBV. Description: Anti-tumor activity against human KBV cells xenografted in male BALB/c nude mouse assessed as reduction in tumor volume at 10 mg/kg administered once daily for 18 days. The format is functional, organism-based. To be noted: time 18.0 day.
Series [18] can be described thus: Sensitization of vincristine -induced cytotoxicity against human KBV cells assessed as fold change in vincristine IC50 at 5 uM incubated for 72 hrs by MTT assay relative to vincristine alone. Type of series: functional.
Series [19] is described as follows: Drug accumulation in human KBV cells expressing p-glycoprotein at 10 uM measured after 4 hrs by UPLC-MS analysis. Type of series: ADME, cell-based.
Series [20] can be described thus: Drug accumulation in human KB cells […] at 10 uM measured after 4 hrs by UPLC-MS analysis. The format is ADME, cell-based.

Calls of active or inactive are those of the source. No cut-off for these calls is given here.

ATP-dependent translocase ABCB1, sequence (P08183 whole entry): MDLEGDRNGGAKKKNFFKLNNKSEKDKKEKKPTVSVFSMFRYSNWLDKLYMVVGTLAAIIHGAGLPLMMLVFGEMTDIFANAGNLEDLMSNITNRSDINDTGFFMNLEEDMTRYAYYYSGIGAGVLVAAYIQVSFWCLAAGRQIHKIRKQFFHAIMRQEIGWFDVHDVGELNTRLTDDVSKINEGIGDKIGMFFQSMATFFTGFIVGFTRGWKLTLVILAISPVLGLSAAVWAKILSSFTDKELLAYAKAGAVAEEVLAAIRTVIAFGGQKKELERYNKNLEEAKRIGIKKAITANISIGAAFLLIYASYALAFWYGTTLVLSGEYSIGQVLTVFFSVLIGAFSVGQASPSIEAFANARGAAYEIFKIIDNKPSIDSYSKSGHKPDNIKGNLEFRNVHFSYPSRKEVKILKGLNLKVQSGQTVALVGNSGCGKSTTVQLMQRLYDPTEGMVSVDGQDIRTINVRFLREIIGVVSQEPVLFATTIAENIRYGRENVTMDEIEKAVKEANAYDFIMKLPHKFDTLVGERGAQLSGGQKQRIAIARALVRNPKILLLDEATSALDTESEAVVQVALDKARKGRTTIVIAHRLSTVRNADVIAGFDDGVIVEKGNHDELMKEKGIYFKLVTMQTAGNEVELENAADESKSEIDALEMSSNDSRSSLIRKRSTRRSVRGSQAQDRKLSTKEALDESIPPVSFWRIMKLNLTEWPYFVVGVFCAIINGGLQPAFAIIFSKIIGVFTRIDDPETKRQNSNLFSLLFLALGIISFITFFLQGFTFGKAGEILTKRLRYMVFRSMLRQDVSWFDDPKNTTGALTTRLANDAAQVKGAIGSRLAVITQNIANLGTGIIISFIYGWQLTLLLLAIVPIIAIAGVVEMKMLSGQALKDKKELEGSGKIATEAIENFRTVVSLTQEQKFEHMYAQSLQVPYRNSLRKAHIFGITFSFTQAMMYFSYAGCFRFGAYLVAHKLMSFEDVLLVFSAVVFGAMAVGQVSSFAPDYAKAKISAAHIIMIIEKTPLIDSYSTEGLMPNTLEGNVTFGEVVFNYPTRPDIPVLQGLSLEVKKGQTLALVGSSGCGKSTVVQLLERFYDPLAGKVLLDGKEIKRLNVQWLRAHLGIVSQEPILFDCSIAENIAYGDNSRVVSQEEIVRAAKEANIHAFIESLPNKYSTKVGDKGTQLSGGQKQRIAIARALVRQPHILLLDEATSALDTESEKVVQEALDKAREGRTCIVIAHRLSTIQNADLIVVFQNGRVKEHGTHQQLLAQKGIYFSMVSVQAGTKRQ

For the molecule `CC1(C)CC[C@]2(C(=O)OCc3ccccc3)CC[C@]3(C)C(=CC[C@@H]4[C@@]5(C)Cc6nccnc6[C@@](C)(CO)[C@@H]5CC[C@]43C)[C@@H]2C1`, the Activity in [1] is 18.17%. Also, in [2], the solubility result is given as “soluble”.
As for `CC(=O)O[C@H]1C(=O)[C@@]2(C)[C@H]([C@H](OC(=O)c3ccccc3)[C@]3(O)C[C@H](OC(=O)[C@H](O)[C@@H](NC(=O)c4ccccc4)c4ccccc4)C(C)=C1C3(C)C)[C@]1(OC(C)=O)CO[C@@H]1C[C@@H]2O` [PACLITAXEL], the outcome in the series on KBV [3] was inactive. Also, in series [4], the IC50 turned out to be 701 nM. In addition, the Activity in series [5] came to 106%.
With `CC1(C)CC[C@]2(C(=O)NCCCC(=O)OCCOCCOCCOCCOCCOCCO)CC[C@]3(C)C(=CC[C@@H]4[C@@]5(C)Cc6nccnc6[C@@](C)(CO)[C@@H]5CC[C@]43C)[C@@H]2C1`, the Activity entry was “Dose-dependent-effect” in the series with KBV [6]; “Dose-dependent-effect” with KBV [9]; “Active” in series [12]; 86% in series [5]; 17.01% in series [1]. The “fold change (FC)” value in [7] came to 6.12; in [8] it was 14.41; in series [14] it was 2.43; in series [15] it was 2.72; in series [16], 103.51; in [18], 6.09. The result in the series with KBv200, in the series with KBV [11] and in the series on KBV [17] was inactive. For the same molecule, the outcome with KBV [10] and in the series on KBV [13] was Active. For the same molecule, the Drug uptake entry in [19] and in [20] was “Active” throughout. Further, in series [2], the solubility result was “soluble”.

As usually defined, the IC50 is the concentration that inhibits the measured activity by half. The low end stands for inhibition by little substance, the high end for a need for much substance.
